Measurements: PMC7037732, “Synthesis of Combretastatin A-4 and 3′-Aminocombretastatin A-4 derivatives with Aminoacid Containing Pendants and Study of their Interaction with Tubulin and as Downregulators of the VEGF, hTERT and c-Myc Gene Expression” (Molecules, 2020)

Columns and labels:
A-549 cells = experiment: Cell cycle distribution by flow cytometry; type: cell-based, human; conditions: A-549, 24 h; for Effect on the cell cycle: concentration per compound as in Tables 6 and 7
Outline: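 A-549 cells were harvested, fixed in cold 70% ethanol (30 min, −20 °C), then stained with 50 µg/mL propidium iodide plus 100 µg/mL RNase A in PBS for 20 min at room temperature in the dark. Flow cytometry used 488 nm excitation and 620 nm emission, giving the percentage of cells in G2/M.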

purified tubulin = experiment: Critical concentration (CrC) for the assembly of purified tubulin in GAB; type: biochemical; conditions: compound 27.5 μM, tubulin 25 μM, glycerol (GAB) and GTP assembly buffer; control 7.9 ± 1.2
Procedure: The effect on the self-assembly of tubulin was determined by measuring the critical concentration (CrC).

[1] = system: MCF-7 (breast adenocarcinoma); experiment: Inhibition of cell proliferation (MTT), MCF-7; type: cell-based, human; conditions: 48 h of treatment (footnote), average ±SD of three experiments
[2] = system: HT-29 (human colon adenocarcinoma); experiment: Inhibition of cell proliferation (MTT), HT-29; type: cell-based; conditions: 48 h of treatment (footnote), average ±SD of three experiments
c-Myc gene = c-Myc gene expression by RT-qPCR in HT-29 cells; type: cell-based, human; conditions: HT-29, 48 h; for mrna remaining at 0.007 µM: 7 nM
Procedure: (§1) The effect on the expression of VEGF, hTERT and c-Myc genes has been studied for CA-4 and its derivatives that show selectivity indexes higher than 0.9 on the HT-29 cell line. The studied derivatives, together with the concentrations to which they have been tested, are CA-4 (15 μM); 4.1 (Gly, 5 μM); 4.5 (L-Pro, 25 μM); 4.9 (L-Met, 25 μM); 6.2 (D-Leu, 25 μM); 6.3 (D-Phe, 25 μM); 6.4 (D-Pro, 25 μM) and 6.5 (D-Ser, 10 μM). The expression of the genes was determined by RT-qPCR methodology, as described in the Materials and Methods section.
(§2) As regards AmCA-4 derivatives, the effect on the expression of the VEGF, hTERT and c-Myc genes has been studied on those that show IC50 in the low nanomolar range on the HT-29 cell line and/or on compounds whose selectivity indexes with respect to this cell line are higher than 1. The studied compounds, together with the concentrations to which they have been tested, are: CA-4 (15 μM), AmCA-4 (15 nM), 7.1 (7 nM), 7.2 (1.5 nM), 7.3 (4 nM), 7.4 (15 nM), 7.5 (2 nM), 7.7 (7 nM), 7.8 (15 nM), 7.9 (30 nM), 8.1 (7 nM), 8.2 (3 nM), 8.3 (10 nM), 8.4 (1.5 nM), 8.5 (4 nM), 8.7 (7 nM), 8.8 (3 nM) and 8.9 (4 nM).
(§3) HT-29 cells at 70–80% confluence were collected, and 1.5 × 10^5 cells were placed in a six-well plate in 1.5 mL of the medium. After 24 h, cells were incubated with the corresponding compounds for 48 h. Cells were collected, and the total cellular RNA from the HT-29 cells was isolated using an Ambion RNA Extraction Kit, according to the manufacturer’s instructions. The cDNA was synthesized by MMLV-RT with […] of extracted RNA and oligo(dT)15, according to the manufacturer’s instructions. Genes were amplified by a thermal cycler and StepOnePlus™ TaqMan® probes. TaqMan® Gene Expression Master Mix Fast, containing the appropriate buffer for the amplification conditions, dNTPs, thermostable DNA polymerase enzyme and a passive reference probe, was used. To amplify each of the genes, the predesigned primers sold by Life Technologies TaqMan® Gene Expression Assays Hs99999903-m1 (β-actin), Hs00900055-m1 (VEGF), Hs00972646-m1 (hTERT) and Hs00153408-m1 (c-Myc) were used.

VEGF gene = VEGF gene expression by RT-qPCR in HT-29 cells; type: cell-based, human; conditions: HT-29, 48 h; for mrna remaining at 0.007 µM: 7 nM
Procedure: as §1, §2, §3

[3] = Homo sapiens, MCF7, 48 h, Table 1
[4] = Homo sapiens, HT-29, 48 h, Table 1
[5] = Homo sapiens, 25 μM, control 100
[6] = Homo sapiens, 10 μM, control 100
[7] = Homo sapiens, MCF7, 48 h, Table 2
[8] = Homo sapiens, HT-29, 48 h, Table 2
[9] = discussion, concentration per compound
[10] = Homo sapiens, 2 nM, control 100
[11] = Homo sapiens, 30 nM, control 100
[12] = Homo sapiens, 3 nM, control 100
[13] = Homo sapiens, 4 nM, control 100

COc1ccc(/C=C\c2cc(OC)c(OC)c(OC)c2)cc1OCC(=O)N1CCC[C@@H]1C(=O)O [Compound 6.4]
G0/G1 (A-549 cells; 75 μM): 71% | G2/M (A-549 cells; 75 μM): 15% | S (A-549 cells; 75 μM): 14% | Effect on the cell cycle (A-549 cells): do not exert any significant effect on the cells | CrC (critical concentration) (purified tubulin): 10 ± 3 µM | IC50 [1, 3]: 55000 ± 13000 nM | IC50 [2, 4]: 50000 ± 11000 nM | mrna remaining at 25 µM (c-Myc gene; [5]): 81% | mrna remaining at 25 µM (VEGF gene; [5]): 25%

COc1ccc(/C=C\c2cc(OC)c(OC)c(OC)c2)cc1OCC(=O)N[C@H](CO)C(=O)O [Compound 6.5]
G0/G1 (A-549 cells; 75 μM): 64% | G2/M (A-549 cells; 75 μM): 18% | S (A-549 cells; 75 μM): 18% | Effect on the cell cycle (A-549 cells): do not exert any significant effect on the cells | CrC (critical concentration) (purified tubulin): 9.25 ± 0.16 µM | IC50 [1, 3]: 12000 ± 1000 nM | IC50 [2, 4]: 13000 ± 1000 nM | mrna remaining at 10 µM (c-Myc gene; [6]): 94% | mrna remaining at 10 µM (VEGF gene; [6]): 54%

COc1ccc(/C=C\c2cc(OC)c(OC)c(OC)c2)cc1NC(=O)CNC(=O)OCC1c2ccccc2-c2ccccc21 [Compound 7.1]
G0/G1 (A-549 cells; 0.5 µM): 28 ± 1% | G2/M (A-549 cells; 0.5 µM): 54 ± 1% | S (A-549 cells; 0.5 µM): 18 ± 2% | CrC (critical concentration) (purified tubulin): 11 ± 4 µM | IC50 [1, 7]: 4.8 ± 0.5 nM | IC50 [2, 8]: 7 ± 4 nM | mrna remaining at 0.007 µM (c-Myc gene; Homo sapiens, control 100): 58% | mrna remaining at 0.007 µM (VEGF gene; Homo sapiens, control 100): 69%

COc1ccc(/C=C\c2cc(OC)c(OC)c(OC)c2)cc1NC(=O)[C@H](Cc1ccccc1)NC(=O)OCC1c2ccccc2-c2ccccc21 [Compound 7.5]
G0/G1 (A-549 cells; 2 µM): 34 ± 2% | G2/M (A-549 cells; 2 µM): 46 ± 3% | S (A-549 cells; 2 µM): 20 ± 1% | CrC (critical concentration) (purified tubulin): 8.1 ± 1.6 µM | IC50 [1, 7]: 14 ± 4 nM | IC50 [2, 8]: 8 ± 3 nM | downregulation of c-Myc gene expression (c-Myc gene; [9]): more than 60% | mrna remaining at 0.002 µM (c-Myc gene; [10]): 40% | downregulation of VEGF gene expression (VEGF gene; [9]): more than 60% | mrna remaining at 0.002 µM (VEGF gene; [10]): 16%

COc1ccc(/C=C\c2cc(OC)c(OC)c(OC)c2)cc1NC(=O)[C@H](CCSC)NC(=O)OCC1c2ccccc2-c2ccccc21 [Compound 7.9]
G0/G1 (A-549 cells; 2 µM): 72 ± 2% | G2/M (A-549 cells; 2 µM): 10 ± 3% | S (A-549 cells; 2 µM): 18 ± 1% | Effect on the cell cycle (A-549 cells): do not accumulate a high percentage of cells in phase G2/M | CrC (critical concentration) (purified tubulin): 7.1 ± 0.4 µM | IC50 [1, 7]: 5.1 ± 0.3 nM | IC50 [2, 8]: 33 ± 20 nM | mrna remaining at 0.03 µM (c-Myc gene; [11]): 61% | mrna remaining at 0.03 µM (VEGF gene; [11]): 68%

COc1ccc(/C=C\c2cc(OC)c(OC)c(OC)c2)cc1NC(=O)CN [Compound 8.1]
G0/G1 (A-549 cells; 2 µM): 32 ± 5% | G2/M (A-549 cells; 2 µM): 46 ± 4% | S (A-549 cells; 2 µM): 22 ± 2% | CrC (critical concentration) (purified tubulin): 10.2 ± 1.8 µM | IC50 [1, 7]: 9 ± 4 nM | IC50 [2, 8]: 10 ± 2 nM | mrna remaining at 0.007 µM (c-Myc gene; Homo sapiens, control 100): 54% | mrna remaining at 0.007 µM (VEGF gene; Homo sapiens, control 100): 24%

COc1ccc(/C=C\c2cc(OC)c(OC)c(OC)c2)cc1NC(=O)[C@H](C)N [Compound 8.2]
G0/G1 (A-549 cells; 3 µM): 28 ± 1% | G2/M (A-549 cells; 3 µM): 58 ± 5% | S (A-549 cells; 3 µM): 14 ± 4% | CrC (critical concentration) (purified tubulin): 13.9 ± 1.5 µM | IC50 [1, 7]: < 5 nM | IC50 ([1]; Table 2): 4.8 ± 0.5 nM | IC50 [2, 8]: < 5 nM | IC50 ([2]; Table 2): 3 ± 0.3 nM | mrna remaining at 0.003 µM (c-Myc gene; [12]): 97% | mrna remaining at 0.003 µM (VEGF gene; [12]): 84%

COc1ccc(/C=C\c2cc(OC)c(OC)c(OC)c2)cc1NC(=O)[C@@H](N)Cc1ccccc1 [Compound 8.5]
G0/G1 (A-549 cells; 0.5 µM): 46 ± 2% | G2/M (A-549 cells; 0.5 µM): 26 ± 10% | S (A-549 cells; 0.5 µM): 28 ± 11% | CrC (critical concentration) (purified tubulin): 9.1 ± 0.9 µM | IC50 [2, 8]: < 5 nM | IC50 ([2]; Table 2): 4.4 ± 2.5 nM | mrna remaining at 0.004 µM (c-Myc gene; [13]): 74% | mrna remaining at 0.004 µM (VEGF gene; [13]): 37%
